Tested on: Raw264.7 macrophages
Experiment: Phagocytosis of GFP C. albicans by macrophages, flow cytometry
Format: cell-based, mouse
Conditions: 2 h pre-treatment
Method: Compromise of host immune function and other target-related toxicities preclude the use of non-species-selective Hsp90 inhibitors in the treatment of fungal infections. Host defense against invasive infection relies heavily on the ingestion and destruction of C. albicans by innate immune cells, such as macrophages. […] After an additional two hours, phagocytosis of the fluorescently labeled fungi was measured by flow cytometry. […] This Hsp90-dependent morphogenetic program has an important role in the organism’s virulence and interactions with host immune effectors such as macrophages.
The ingestion of GFP-marked C. albicans CaCi-2 (CaLC867, Table S4) by mouse macrophages was monitored using flow cytometry. Raw264.7 macrophage cultures were pre-treated with various concentrations of Hsp90 inhibitors for 2 h at 37 °C and then infected with fungus at a multiplicity of infection of ~2 for an additional 2 h. Wells were harvested by trypsinization and resultant cell suspensions incubated with Guava ViaCount reagent per manufacturer’s recommendation (Millipore Sigma, Cat #4000-0040). Red fluorescent signal was used to identify macrophages while green fluorescent signal identified the fungus. Dual positive (red and green) events with appropriate forward- and side-scatter parameters were quantitated as representative of ingestion of fungus by a macrophage. […]

For `COc1ccc(CON=C2C=CC=CC3OC3CC(C)OC(=O)c3c(O)cc(O)cc3C2)cc1` (stereo not shown) [CMLD013075], the “effect on engulfment of C. albicans” value was “Neither compound impaired engulfment”.
